22 molecules from patent US8618103B2 (priority 2009, dated 2013) can be followed below.

Usually melting point stands for the temperature of the solid-liquid transition.

The structures appear in SMILES notation.

`CCCC(=O)N1CC[C@@H](Nc2ncccc2-c2cnc3[nH]ccc3n2)C1` [Example I-21, 1-{(R)-3-[3-(5H-Pyrrolo[2,3-b]pyrazin-2-yl)-pyridin-2-ylamino]-pyrrolidin-1-yl}-butan-1-one] registered a melting point of 115 to 120 °C.

Molecule `COC(=O)N1CC[C@H](Nc2ncccc2-c2cnc3[nH]ccc3n2)C1` [Example I-10, (S)-3-[3-(5H-Pyrrolo[2,3-b]pyrazin-2-yl)-pyridin-2-ylamino]-pyrrolidine-1-carboxylic acid methyl ester] returned a melting point of 222 to 225 °C.

On to `CC(C)S(=O)(=O)N1CC[C@@H](Nc2ncccc2-c2cnc3[nH]ccc3n2)C1` [Example I-18, [(R)-1-(Propane-2-sulfonyl)-pyrrolidin-3-yl]-[3-(5H-pyrrolo[2,3-b]pyrazin-2-yl)-pyridin-2-yl]-amine], for which the melting point is 187 to 189 °C.

For `CS(=O)(=O)N1CC[C@@H](Nc2ncccc2-c2cnc3[nH]ccc3n2)C1` [Example I-5, ((R)-1-Methanesulfonyl-pyrrolidin-3-yl)-[3-(5H-pyrrolo[2,3-b]pyrazin-2-yl)-pyridin-2-yl]-amine], the melting point lay within 224 to 226 °C.

The molecule `CC(C)CS(=O)(=O)N1CC[C@@H](Nc2ncccc2-c2cnc3[nH]ccc3n2)C1` [Example I-19, [(R)-1-(2-Methyl-propane-1-sulfonyl)-pyrrolidin-3-yl]-[3-(5H-pyrrolo[2,3-b]pyrazin-2-yl)-pyridin-2-yl]-amine] came in with a melting point of 134 to 137 °C.

For `COC(=O)N1CCCCC(Nc2ncccc2-c2cnc3[nH]ccc3n2)C1` (stereo not shown) [Example I-13, 3-[3-(5H-Pyrrolo[2,3-b]pyrazin-2-yl)-pyridin-2-ylamino]-azepane-1-carboxylic acid methyl ester], the melting point fell in the range of 90 to 100 °C.

In turn, `CCC(=O)N1CC[C@@H](Nc2ncccc2-c2cnc3[nH]ccc3n2)C1` [Example I-20, 1-{(R)-3-[3-(5H-Pyrrolo[2,3-b]pyrazin-2-yl)-pyridin-2-ylamino]-pyrrolidin-1-yl}-propan-1-one] showed a melting point of 105 to 110 °C.

Take `Cc1ccc(-c2cnc3[nH]ccc3n2)c(NC2CCCN(S(C)(=O)=O)C2)n1` (stereo not shown) [Example I-31, (1-Methane-sulfonyl-piperidin-3-yl)-[6-methyl-3-(5H-pyrrolo[2,3-b]pyrazin-2-yl)-pyridin-2-yl]-amine]: the melting point fell in the range of 253 to 255 °C.

`CCCS(=O)(=O)N1C[C@@H](C)C[C@H](Nc2ncccc2-c2cnc3[nH]ccc3n2)C1` [Example I-25, [(3S,5S)-5-Methyl-1-(propane-1-sulfonyl)-piperidin-3-yl]-[3-(5H-pyrrolo[2,3-b]pyrazin-2-yl)-pyridin-2-yl]-amine] yielded a melting point of 178 to 180 °C.

Regarding `COC(=O)N1CC[C@@H](Nc2ncccc2-c2cnc3[nH]ccc3n2)C1` [Example I-4, (R)-3-[3-(5H-Pyrrolo[2,3-b]pyrazin-2-yl)-pyridin-2-ylamino]-pyrrolidine-1-carboxylic acid methyl ester], the melting point was in the range of 221 to 224 °C.

`CS(=O)(=O)N1CC[C@H](Nc2ncccc2-c2cnc3[nH]ccc3n2)C1` [Example I-11, ((S)-1-Methanesulfonyl-pyrrolidin-3-yl)-[3-(5H-pyrrolo[2,3-b]pyrazin-2-yl)-pyridin-2-yl]-amine] returned a melting point of 222 to 224 °C.

The molecule `CS(=O)(=O)N1CCCC(Nc2ncccc2-c2cnc3[nH]ccc3n2)CC1` (stereo not shown) [Example I-37, (1-Methane-sulfonyl-azepan-4-yl)-[3-(5H-pyrrolo[2,3-b]pyrazin-2-yl)-pyridin-2-yl]-amine] showed a melting point of 215 to 217 °C.

For `CC(=O)N1CCCCC(Nc2ncccc2-c2cnc3[nH]ccc3n2)C1` (stereo not shown) [Example I-12, 1-{3-[3-(5H-Pyrrolo[2,3-b]pyrazin-2-yl)-pyridin-2-ylamino]-azepan-1-yl}-ethanone], the melting point was in the range of 100 to 110 °C.

On to `CCS(=O)(=O)N1CC[C@@H](Nc2ncccc2-c2cnc3[nH]ccc3n2)C1` [Example I-16, ((R)-1-Ethanesulfonyl-pyrrolidin-3-yl)-[3-(5H-pyrrolo[2,3-b]pyrazin-2-yl)-pyridin-2-yl]-amine], for which the melting point is 230 to 232 °C.

In turn, `CS(=O)(=O)N1CCCCC(Nc2ncccc2-c2cnc3[nH]ccc3n2)C1` (stereo not shown) [Example I-14, (1-Methane-sulfonyl-azepan-3-yl)-[3-(5H-pyrrolo[2,3-b]pyrazin-2-yl)-pyridin-2-yl]-amine] gave a melting point of 213 to 216 °C.

As for `CCS(=O)(=O)N1CCCC(Nc2nc(C)ccc2-c2cnc3[nH]ccc3n2)C1` (stereo not shown) [Example I-34, (1-Ethane-sulfonyl-piperidin-3-yl)-[6-methyl-3-(5H-pyrrolo[2,3-b]pyrazin-2-yl)-pyridin-2-yl]-amine], the melting point fell in the range of 204 to 207 °C.

`CC(=O)N1CCCC(Nc2nc(C)ccc2-c2cnc3[nH]cc(Cl)c3n2)C1` (stereo not shown) [Example I-39, 1-{3-[3-(7-Chloro-5H-pyrrolo[2,3-b]pyrazin-2-yl)-6-methyl-pyridin-2-ylamino]-piperidin-1-yl}-ethanone] had a melting point of 254 to 259 °C.

`O=S(=O)(CC1CC1)N1CCC[C@H](Nc2ncccc2-c2cnc3[nH]ccc3n2)C1` [Example I-38, ((S)-1-Cyclopropyl-methanesulfonyl-piperidin-3-yl)-[3-(5H-pyrrolo[2,3-b]pyrazin-2-yl)-pyridin-2-yl]-amine] came in with a melting point of 209 to 212 °C.

Molecule `FC(F)(F)CN1CCC[C@H](Nc2ncccc2-c2cnc3[nH]ccc3n2)C1` [Example I-33, [3-(5H-Pyrrolo[2,3-b]pyrazin-2-yl)-pyridin-2-yl]-[(S)-1-(2,2,2-trifluoro-ethyl)-piperidin-3-yl]-amine] came in with a melting point of 207 to 209 °C.

`Cc1ccc(-c2cnc3[nH]ccc3n2)c(NC2CCCN(S(=O)(=O)CC(C)(C)C)C2)n1` (stereo not shown) [Example I-36, [1-(2,2-Dimethyl-propane-1-sulfonyl)-piperidin-3-yl]-[6-methyl-3-(5H-pyrrolo[2,3-b]pyrazin-2-yl)-pyridin-2-yl]-amine]: the melting point lay in the range of 218 to 220 °C.

As to `CCCS(=O)(=O)N1CC[C@@H](Nc2ncccc2-c2cnc3[nH]ccc3n2)C1` [Example I-17, [(R)-1-(Propane-1-sulfonyl)-pyrrolidin-3-yl]-[3-(5H-pyrrolo[2,3-b]pyrazin-2-yl)-pyridin-2-yl]-amine], the melting point is 198 to 200 °C.

The molecule `CC(C)CCS(=O)(=O)N1CC[C@@H](Nc2ncccc2-c2cnc3[nH]ccc3n2)C1` [Example I-27, [(R)-1-(3-Methyl-butane-1-sulfonyl)-pyrrolidin-3-yl]-[3-(5H-pyrrolo[2,3-b]pyrazin-2-yl)-pyridin-2-yl]-amine] displayed a melting point of 160 to 162 °C.
